Measured values from PubChem BioAssay (NCI).
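GI50 = concentration required for 50% inhibition of growth. The concentration for full growth arrest is given as TGI.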

Legend:
Assay in all cases: DTP human tumour cell line panel, 384-well format
BT-549 breast = tested on: BT-549 breast
MALME-3M melanoma = tested on: MALME-3M melanoma
MDA-MB-468 breast = tested on: MDA-MB-468 breast
NCI-H23 lung = tested on: NCI-H23 lung
HCC-2998 colon = tested on: HCC-2998 colon
A549 NSCLC = tested on: A549 NSCLC
COLO 205 colon = tested on: COLO 205 colon
NCI-H522 lung = tested on: NCI-H522 lung
HT29 colon = tested on: HT29 colon
RXF 393 renal = tested on: RXF 393 renal
SNB-19 CNS = tested on: SNB-19 CNS
UACC-257 melanoma = tested on: UACC-257 melanoma
KM12 colon = tested on: KM12 colon
CAKI-1 renal = tested on: CAKI-1 renal
A498 renal = tested on: A498 renal
DU-145 prostate = tested on: DU-145 prostate
RPMI-8226 leukemia = tested on: RPMI-8226 leukemia
NCI-H460 NSCLC = tested on: NCI-H460 NSCLC
NCI-H226 lung = tested on: NCI-H226 lung
U251 glioblastoma = tested on: U251 glioblastoma
MDA-MB-435 melanoma = tested on: MDA-MB-435 melanoma
ACHN renal = tested on: ACHN renal
SN12C renal = tested on: SN12C renal
SK-MEL-5 melanoma = tested on: SK-MEL-5 melanoma
MCF7 breast = tested on: MCF7 breast
SR leukemia = tested on: SR leukemia
HS 578T breast = tested on: HS 578T breast
HL-60(TB) leukemia = tested on: HL-60(TB) leukemia
TK-10 renal = tested on: TK-10 renal
SF-268 CNS = tested on: SF-268 CNS
CCRF-CEM leukemia = tested on: CCRF-CEM leukemia
SF-539 CNS = tested on: SF-539 CNS
786-0 renal = tested on: 786-0 renal
HOP-62 NSCLC = tested on: HOP-62 NSCLC
OVCAR-3 ovarian = tested on: OVCAR-3 ovarian
SNB-75 CNS = tested on: SNB-75 CNS
EKVX NSCLC = tested on: EKVX NSCLC
SK-MEL-28 melanoma = tested on: SK-MEL-28 melanoma
NCI/ADR-RES ovarian = tested on: NCI/ADR-RES ovarian
HCT-15 colon = tested on: HCT-15 colon
SF-295 CNS = tested on: SF-295 CNS
SW-620 colon = tested on: SW-620 colon
MOLT-4 leukemia = tested on: MOLT-4 leukemia
NCI-H322M lung = tested on: NCI-H322M lung
MDA-MB-231 breast = tested on: MDA-MB-231 breast
UACC-62 melanoma = tested on: UACC-62 melanoma
PC-3 prostate = tested on: PC-3 prostate
M14 melanoma = tested on: M14 melanoma
T-47D breast = tested on: T-47D breast
OVCAR-4 ovarian = tested on: OVCAR-4 ovarian
IGROV1 ovarian = tested on: IGROV1 ovarian
SK-MEL-2 melanoma = tested on: SK-MEL-2 melanoma
OVCAR-8 ovarian = tested on: OVCAR-8 ovarian
SK-OV-3 ovarian = tested on: SK-OV-3 ovarian
OVCAR-5 ovarian = tested on: OVCAR-5 ovarian
HOP-92 NSCLC = tested on: HOP-92 NSCLC

CC(C)(C)c1ccc(Oc2ccc(N)cn2)cc1
GI50 (BT-549 breast): 12.6 µM
TGI (BT-549 breast): 65 µM
GI50 (MALME-3M melanoma): 26.9 µM
TGI (MALME-3M melanoma): 72.9 µM
GI50 (MDA-MB-468 breast): 21 µM
TGI (MDA-MB-468 breast): 57 µM
GI50 (NCI-H23 lung): 29.1 µM
TGI (NCI-H23 lung): 85.8 µM
GI50 (HCC-2998 colon): 17 µM
TGI (HCC-2998 colon): 48.6 µM
GI50 (A549 NSCLC): 20.4 µM
TGI (A549 NSCLC): > 100 µM
GI50 (COLO 205 colon): 38.6 µM
TGI (COLO 205 colon): 86.6 µM
GI50 (NCI-H522 lung): 14.7 µM
TGI (NCI-H522 lung): 39.9 µM
GI50 (HT29 colon): 24.9 µM
TGI (HT29 colon): 57.7 µM
GI50 (RXF 393 renal): 21.8 µM
TGI (RXF 393 renal): 66.2 µM
GI50 (SNB-19 CNS): > 100 µM
TGI (SNB-19 CNS): > 100 µM
GI50 (UACC-257 melanoma): 36 µM
TGI (UACC-257 melanoma): > 100 µM
GI50 (KM12 colon): 44.3 µM
TGI (KM12 colon): > 100 µM
GI50 (CAKI-1 renal): 24.1 µM
TGI (CAKI-1 renal): > 100 µM
GI50 (A498 renal): 46.5 µM
TGI (A498 renal): > 100 µM
GI50 (DU-145 prostate): 64.3 µM
TGI (DU-145 prostate): > 100 µM
GI50 (RPMI-8226 leukemia): 0.231 µM
TGI (RPMI-8226 leukemia): 0.563 µM
GI50 (NCI-H460 NSCLC): 32.7 µM
TGI (NCI-H460 NSCLC): > 100 µM
GI50 (NCI-H226 lung): 10.8 µM
TGI (NCI-H226 lung): 52.3 µM
GI50 (U251 glioblastoma): 35.8 µM
TGI (U251 glioblastoma): > 100 µM
GI50 (MDA-MB-435 melanoma): 92.2 µM
TGI (MDA-MB-435 melanoma): > 100 µM
GI50 (ACHN renal): > 100 µM
TGI (ACHN renal): > 100 µM
GI50 (SN12C renal): 57.7 µM
TGI (SN12C renal): > 100 µM
GI50 (SK-MEL-5 melanoma): 22.3 µM
TGI (SK-MEL-5 melanoma): 51.8 µM
GI50 (MCF7 breast): 74.2 µM
TGI (MCF7 breast): > 100 µM
GI50 (SR leukemia): 14.3 µM
TGI (SR leukemia): 32.8 µM
GI50 (HS 578T breast): 29.5 µM
TGI (HS 578T breast): > 100 µM
GI50 (HL-60(TB) leukemia): 0.479 µM
TGI (HL-60(TB) leukemia): 2.82 µM
GI50 (TK-10 renal): 93 µM
TGI (TK-10 renal): > 100 µM
GI50 (SF-268 CNS): 26 µM
TGI (SF-268 CNS): > 100 µM
GI50 (CCRF-CEM leukemia): 0.302 µM
TGI (CCRF-CEM leukemia): 1.24 µM
GI50 (SF-539 CNS): 43.4 µM
TGI (SF-539 CNS): > 100 µM
GI50 (786-0 renal): 24.7 µM
TGI (786-0 renal): > 100 µM
GI50 (HOP-62 NSCLC): 33 µM
TGI (HOP-62 NSCLC): > 100 µM
GI50 (OVCAR-3 ovarian): 24.9 µM
TGI (OVCAR-3 ovarian): > 100 µM
GI50 (SNB-75 CNS): 22.1 µM
TGI (SNB-75 CNS): > 100 µM
GI50 (EKVX NSCLC): 44.2 µM
TGI (EKVX NSCLC): > 100 µM
GI50 (SK-MEL-28 melanoma): > 100 µM
TGI (SK-MEL-28 melanoma): > 100 µM
GI50 (NCI/ADR-RES ovarian): 36.4 µM
TGI (NCI/ADR-RES ovarian): > 100 µM
GI50 (HCT-15 colon): 29.4 µM
TGI (HCT-15 colon): > 100 µM
GI50 (SF-295 CNS): > 100 µM
TGI (SF-295 CNS): > 100 µM
GI50 (SW-620 colon): 85.7 µM
TGI (SW-620 colon): > 100 µM
GI50 (MOLT-4 leukemia): 4.83 µM
TGI (MOLT-4 leukemia): 19.3 µM
GI50 (NCI-H322M lung): 68.2 µM
TGI (NCI-H322M lung): > 100 µM
GI50 (MDA-MB-231 breast): 28.4 µM
TGI (MDA-MB-231 breast): > 100 µM
GI50 (UACC-62 melanoma): > 100 µM
TGI (UACC-62 melanoma): > 100 µM
GI50 (PC-3 prostate): 43.5 µM
TGI (PC-3 prostate): > 100 µM
GI50 (M14 melanoma): > 100 µM
TGI (M14 melanoma): > 100 µM
GI50 (T-47D breast): 31.2 µM
TGI (T-47D breast): > 100 µM
GI50 (OVCAR-4 ovarian): 28.1 µM
TGI (OVCAR-4 ovarian): > 100 µM
GI50 (IGROV1 ovarian): 97.3 µM
TGI (IGROV1 ovarian): > 100 µM
GI50 (SK-MEL-2 melanoma): > 100 µM
TGI (SK-MEL-2 melanoma): > 100 µM
GI50 (OVCAR-8 ovarian): 52.1 µM
TGI (OVCAR-8 ovarian): > 100 µM
GI50 (SK-OV-3 ovarian): > 100 µM
TGI (SK-OV-3 ovarian): > 100 µM
GI50 (OVCAR-5 ovarian): > 100 µM
TGI (OVCAR-5 ovarian): > 100 µM
GI50 (HOP-92 NSCLC): 34.8 µM
TGI (HOP-92 NSCLC): > 100 µM
